Results from PubChem BioAssay AID254 (DTP/NCI, 2004).
Values joined by “and” are separate entries in the source; they are usually repeats but may differ in a detail not shown here. Identical values can stand only once. Toxic doses and inconclusive results are not listed. The calls were made as follows: active = survival T/C of 150% or more; inactive = T/C below 125% in these data.

Tested on: L1210 leukemia iv in BDF1 mice, survival T/C
Experiment: NCI In Vivo Anticancer Drug Screen. Data for tumor model L1210 Leukemia (intravenous) in B6D2F1 (BDF1) mice
Details: higher = longer survival
Method: The antitumor activity of compounds was measured in mice bearing transplantable tumors. Survival or tumor size were measured and the results are expressed as the measurement made in the treated group (T) divided by the measurement made in the vehicle treated control group (C). The tumor model used in this assay is L1210 Leukemia (intravenous) in B6D2F1 (BDF1) mice

[1] = endpoint: mean survival time, dose: 15.0 mg/kg/injection, schedule: Q01DX001 (ip), vehicle: other

Measured: T/C

O=NN(CCCl)C(=O)N[C@H]1CCCC[C@@H]1Cl
inactive: endpoint: mean survival time, dose: 5.0 mg/kg/injection, schedule: Q01DX001 (ip), vehicle: other 108 % of control and 121 % of control | endpoint: mean survival time, dose: 30.0 mg/kg/injection, schedule: Q04DX004 (ip), vehicle: other 95 % of control
active: [1] 153 % of control and 160 % of control | endpoint: mean survival time, dose: 20.0 mg/kg/injection, schedule: Q04DX004 (ip), vehicle: other 319 % of control | endpoint: mean survival time, dose: 30.0 mg/kg/injection, schedule: Q01DX001 (ip), vehicle: other 514 % of control | endpoint: mean survival time, dose: 41.0 mg/kg/injection, schedule: Q01DX001 (ip), vehicle: other 558 % of control and 564 % of control | endpoint: mean survival time, dose: 45.0 mg/kg/injection, schedule: Q01DX001 (ip), vehicle: other 819 % of control | endpoint: mean survival time, dose: 45.0 mg/kg/injection, schedule: Q04DX004 (ip), vehicle: other 512 % of control | endpoint: mean survival time, dose: 75.0 mg/kg/injection, schedule: Q01DX001 (ip), vehicle: other 583 % of control and 650 % of control and 652 % of control | endpoint: mean survival time, dose: 83.0 mg/kg/injection, schedule: Q01DX001 (ip), vehicle: other 376 % of control and 553 % of control | endpoint: mean survival time, dose: 90.0 mg/kg/injection, schedule: Q01DX001 (ip), vehicle: other 460 % of control

NC(=O)c1csc(C2OC(CO)C(O)C2O)n1 (centres undefined)
active: endpoint: median survival time, dose: 330.0 mg/kg/injection, schedule: Q01DX009 (ip), vehicle: water 241 % of control | endpoint: median survival time, dose: 500.0 mg/kg/injection, schedule: Q01DX009 (ip), vehicle: water 265 % of control | endpoint: median survival time, dose: 750.0 mg/kg/injection, schedule: Q01DX009 (ip), vehicle: water 268 % of control

O=NN(CCCl)C(=O)NC1CCCC1
active: endpoint: mean survival time, dose: 38.0 mg/kg/injection, schedule: Q01DX001 (ip), vehicle: saline 160 % of control and 182 % of control | endpoint: mean survival time, dose: 75.0 mg/kg/injection, schedule: Q01DX001 (ip), vehicle: saline 174 % of control and 202 % of control | endpoint: mean survival time, dose: 150.0 mg/kg/injection, schedule: Q01DX001 (ip), vehicle: saline 212 % of control and 265 % of control
inactive: endpoint: mean survival time, dose: 9.0 mg/kg/injection, schedule: Q01DX001 (ip), vehicle: saline 106 % of control and 100 % of control | endpoint: mean survival time, dose: 19.0 mg/kg/injection, schedule: Q01DX001 (ip), vehicle: saline 114 % of control and 119 % of control

O=NN(CCF)C(=O)NC1CCSCC1
active: endpoint: mean survival time, dose: 3.7 mg/kg/injection, schedule: Q01DX001 (ip), vehicle: other 154 % of control | endpoint: mean survival time, dose: 7.0 mg/kg/injection, schedule: Q01DX001 (ip), vehicle: other 206 % of control and 227 % of control | [1] 365 % of control and 575 % of control | endpoint: mean survival time, dose: 31.0 mg/kg/injection, schedule: Q01DX001 (ip), vehicle: other 634 % of control and 642 % of control | endpoint: mean survival time, dose: 62.0 mg/kg/injection, schedule: Q01DX001 (ip), vehicle: other 515 % of control and 856 % of control

CN(C)/N=N/c1nc[nH]c1C(N)=O
active: endpoint: mean survival time, dose: 600.0 mg/kg/injection, schedule: Q01DX001 (ip), vehicle: carboxymethylcellulose (CMC) 161 % of control | endpoint: mean survival time, dose: 900.0 mg/kg/injection, schedule: Q01DX001 (ip), vehicle: carboxymethylcellulose (CMC) 193 % of control | endpoint: mean survival time, dose: 1012.0 mg/kg/injection, schedule: Q01DX001 (ip), vehicle: carboxymethylcellulose (CMC) 183 % of control and 184 % of control
inactive: endpoint: mean survival time, dose: 42.0 mg/kg/injection, schedule: Q01DX001 (ip), vehicle: carboxymethylcellulose (CMC) 85 % of control and 86 % of control | endpoint: mean survival time, dose: 83.0 mg/kg/injection, schedule: Q01DX001 (ip), vehicle: carboxymethylcellulose (CMC) 97 % of control and 98 % of control | endpoint: mean survival time, dose: 170.0 mg/kg/injection, schedule: Q01DX001 (ip), vehicle: carboxymethylcellulose (CMC) 114 % of control and 115 % of control | endpoint: mean survival time, dose: 180.0 mg/kg/injection, schedule: Q01DX001 (ip), vehicle: carboxymethylcellulose (CMC) 113 % of control | endpoint: mean survival time, dose: 1350.0 mg/kg/injection, schedule: Q01DX001 (ip), vehicle: carboxymethylcellulose (CMC) 113 % of control

CCOC(=O)C1CCC(NC(=O)N(CCCl)N=O)CC1 (centres undefined)
inactive: endpoint: mean survival time, dose: 4.0 mg/kg/injection, schedule: Q01DX001 (ip), vehicle: other 113 % of control and 100 % of control | endpoint: mean survival time, dose: 8.0 mg/kg/injection, schedule: Q01DX001 (ip), vehicle: other 116 % of control
active: endpoint: mean survival time, dose: 8.6 mg/kg/injection, schedule: Q04DX004 (ip), vehicle: gum acacia 274 % of control and 275 % of control | endpoint: mean survival time, dose: 13.0 mg/kg/injection, schedule: Q04DX004 (ip), vehicle: gum acacia 254 % of control | endpoint: mean survival time, dose: 16.0 mg/kg/injection, schedule: Q01DX001 (ip), vehicle: other 162 % of control and 193 % of control | endpoint: mean survival time, dose: 20.0 mg/kg/injection, schedule: Q04DX004 (ip), vehicle: gum acacia 837 % of control | endpoint: mean survival time, dose: 30.0 mg/kg/injection, schedule: Q04DX004 (ip), vehicle: gum acacia 1010 % of control | endpoint: mean survival time, dose: 33.0 mg/kg/injection, schedule: Q01DX001 (ip), vehicle: other 465 % of control and 302 % of control | endpoint: mean survival time, dose: 66.0 mg/kg/injection, schedule: Q01DX001 (ip), vehicle: other 663 % of control and 330 % of control

CN(Cc1cnc2nc(N)nc(N)c2n1)c1ccc(C(=O)N[C@@H](CCC(=O)O)C(=O)O)cc1
inactive: endpoint: mean survival time, dose: 0.3 mg/kg/injection, schedule: Q01DX008 (ip), vehicle: other 110 % of control | endpoint: mean survival time, dose: 0.3 mg/kg/injection, schedule: Q01HX008 (ip), vehicle: other 121 % of control | endpoint: mean survival time, dose: 0.3 mg/kg/injection, schedule: Q03HX008 (ip), vehicle: other 118 % of control | endpoint: mean survival time, dose: 0.3 mg/kg/injection, schedule: Q06HX008 (ip), vehicle: other 116 % of control | endpoint: mean survival time, dose: 0.3 mg/kg/injection, schedule: Q12HX008 (ip), vehicle: other 115 % of control | endpoint: mean survival time, dose: 0.4 mg/kg/injection, schedule: Q01DX008 (ip), vehicle: other 121 % of control | endpoint: mean survival time, dose: 0.4 mg/kg/injection, schedule: Q01HX008 (ip), vehicle: other 119 % of control | endpoint: mean survival time, dose: 0.4 mg/kg/injection, schedule: Q03HX008 (ip), vehicle: other 119 % of control | endpoint: mean survival time, dose: 0.4 mg/kg/injection, schedule: Q06HX008 (ip), vehicle: other 122 % of control | endpoint: mean survival time, dose: 0.4 mg/kg/injection, schedule: Q12HX008 (ip), vehicle: other 115 % of control | endpoint: mean survival time, dose: 2.4 mg/kg/injection, schedule: Q01DX001 (ip), vehicle: other 122 % of control | endpoint: mean survival time, dose: 3.2 mg/kg/injection, schedule: Q01DX001 (ip), vehicle: other 119 % of control

Nc1ccn(C2OC(COC(=O)C34CC5CC(CC(C5)C3)C4)C(O)C2O)c(=O)n1 (centres undefined)
active: endpoint: mean survival time, dose: 100.0 mg/kg/injection, schedule: Q01DX001 (ip), vehicle: other 150 % of control and 178 % of control | endpoint: mean survival time, dose: 200.0 mg/kg/injection, schedule: Q01DX001 (ip), vehicle: other 189 % of control and 215 % of control | endpoint: mean survival time, dose: 400.0 mg/kg/injection, schedule: Q01DX001 (ip), vehicle: other 464 % of control and 281 % of control

O=c1[nH]cc(F)c(=O)[nH]1
inactive: endpoint: mean survival time, dose: 10.0 mg/kg/injection, schedule: Q01DX005 (ip), vehicle: saline 109 % of control | endpoint: mean survival time, dose: 20.0 mg/kg/injection, schedule: Q01DX005 (ip), vehicle: saline 120 % of control
active: endpoint: mean survival time, dose: 40.0 mg/kg/injection, schedule: Q01DX005 (ip), vehicle: saline 152 % of control | endpoint: mean survival time, dose: 50.0 mg/kg/injection, schedule: Q01DX005 (ip), vehicle: saline 183 % of control | endpoint: mean survival time, dose: 60.0 mg/kg/injection, schedule: Q01DX005 (ip), vehicle: saline 182 % of control and 186 % of control | endpoint: mean survival time, dose: 120.0 mg/kg/injection, schedule: Q01DX001 (ip), vehicle: water 150 % of control | endpoint: mean survival time, dose: 150.0 mg/kg/injection, schedule: Q01DX001 (ip), vehicle: water 154 % of control | endpoint: mean survival time, dose: 180.0 mg/kg/injection, schedule: Q01DX001 (ip), vehicle: water 180 % of control
